Laboratory results as given in US5248680A, “Zwitterionic compounds and their n-halo derivatives for use in the treatment of clinical conditions” (Bloomfield D.A., priority 1990, dated 1993).
Like-named read-outs stand apart in the source and are kept apart here.

Tests used:
[1] = system: peripheral blood neutrophils; experiment: Chemiluminescence (reactive oxidant production) of peripheral blood neutrophils stimulated with calcium ionophore; assay type: cell-based; conditions: Homo sapiens, Neutrophil, mean ± S.E.M.; for activity at 10000 µM: 10 mM zwitterionic compound, normal neutrophils, read-out: Chemiluminescence activity of normal neutrophils; for activity at 40000 µM: 40 mM taurine, read-out: Chemiluminesence production by neutrophils
From the text: Patients were selected with mild to moderate plaque-type psoriasis on the basis of clinical and histological evidence of disease. Normal volunteers were selected from laboratory personnel without personal or family history of inflammatory disease. Disease control groups included: a) patients with eczema, acne and dermatitis herpetiformis; and b) patients with Crohn's disease and ulcerative colitis. Blood samples from each subject were drawn into sodium heparin Vacutainers® (Vacutainer is a Trade Mark). The inflammatory cells (neutrophils) were isolated by dextran sedimentation and FICOLL-PAQUE®(FICOLL-PLAQUE is a Trade Mark) gradient centrifugation. Viability and purity were assessed by fluorescence microscopy, using ethidium bromide and acridine orange staining. […] Chemiluminescence activity of the peripheral blood neutrophils was tested using the method of Bloomfield, F. J. and Young, M. M. (Inflammation, (1982) 6, 257, hereby incorporated by reference), using calcium ionophore (2μ Molar) as stimulant instead of opsonized zymosan. Chemiluminescence is a measure of the production of reactive oxidants by neutrophils in response to an inflammatory stimulus. It was observed that there was significant reduction in chemiluminescence activity by neutrophils in the taurine-treated and HEPES-treated cells compared to control cells in all groups.

myeloperoxidase [2] = experiment: Myeloperoxidase activity of neutrophils after preincubation with zwitterion; assay type: cell-based, human; conditions: mean ± S.E.M.; for Myeloperoxidase activity of normal neutrophils: 10 mM zwitterionic compound; for Myeloperoxidase activity of neutrophils: 40 mM taurine
From the text: (§1) Patients were selected with mild to moderate plaque-type psoriasis on the basis of clinical and histological evidence of disease. Normal volunteers were selected from laboratory personnel without personal or family history of inflammatory disease. Disease control groups included: a) patients with eczema, acne and dermatitis herpetiformis; and b) patients with Crohn's disease and ulcerative colitis.
(§2) Blood samples from each subject were drawn into sodium heparin Vacutainers® (Vacutainer is a Trade Mark). The inflammatory cells (neutrophils) were isolated by dextran sedimentation and FICOLL-PAQUE®(FICOLL-PLAQUE is a Trade Mark) gradient centrifugation. Viability and purity were assessed by fluorescence microscopy, using ethidium bromide and acridine orange staining.

leukotriene B4 = experiment: Degradation of standard leukotriene B4 measured by radioimmunoassay; assay type: biochemical; conditions: data not shown
From the text: (§3) It was therefore proposed to test the hypothesis that HEPES could inactivate leukotriene B4 by indirect stimulation of MPO leading to increased production of hypochlorous acid from cellular hydrogen peroxide.

neutrophils [3] = experiment: Degranulation of lysosomal enzymes by neutrophils stimulated with calcium ionophore; assay type: cell-based, human; conditions: result in words; taurine data not shown
From the text: as §1, §2
Stimulation of the inflammatory process in neutrophils, not only activates the respiratory burst, but as a consequence, is also associated with release of lysosomal enzymes from the cells in a process called degranulation. Degranulation of lysosomal enzymes was stimulated in neutrophils from each group of subjects, using calcium ionophore as inflammatory stimulant.

catalase = experiment: Catalase activity of neutrophils after preincubation; assay type: cell-based, human; conditions: neutrophils preincubated with HEPES or taurine; data not shown
neutrophils [4] = experiment: Hypochlorous acid production by neutrophils; assay type: cell-based; conditions: Homo sapiens, Neutrophil, 40 mM taurine, mean ± S.E.M.
From the text: as §1, §2

neutrophils [5] = experiment: Leukotriene B4 in supernatants of stimulated neutrophils; assay type: cell-based, human; conditions: Homo sapiens, Neutrophil, 40 mM taurine, mean ± S.E.M., read-out: Leukotriene B4 production by neutrophils
From the text: as §1, §2, §3
For the methodology used in the in vitro studies hereinafter described reference should be made to McLoughlin, D. M. et al. Biochem. Soc. Trans. (1991) 19:73-78 hereby incorporated by reference, except where otherwise stated.

monocytes = experiment: Leukotriene B4 in stimulated monocytes; assay type: cell-based, human; conditions: preincubation with 10 mM HEPES or 40 mM taurine; data not shown
From the text: as §3

[6] = system: carrageenan induced paw oedema; experiment: Carrageenan-induced paw oedema in rats; assay type: in vivo, rat; conditions: for percentage increase in paw volume: 1 h after carrageenan, mean ± S.E.M.; for reduction in paw oedema: versus control
Description: The studies were conducted on inbred Wistar strain albino rats (120-180 g) of either sex. The rats were housed in colony cages at an ambient temperature of 25°±2° C. and fed on standard pellet chow. The rats were anaesthetized using pentobarbitone sodium, their hind paws were marked and the volume measured. […] The control animals were injected with 10 μl of 0.9% saline solution. […] One hour following the carrageenan injection the hind paw volume was measured again. A 5 ml blood sample was taken from each animal into sodium heparin Vacutainers. Chemiluminescence activity was assayed in the PBMC isolated from each animal.
These studies were also conducted on inbred Wistar strain albino rats (120-180 g) of either sex. The rats were anaesthetized using pentobarbitone sodium prior to marking each hind paw and measuring paw volume. […] The control animals received 0.5 ml of 0.9% NaCl subcutaneously. 30 min after the injections were administered, paw oedema was induced using carrageenan. One hour following carrageenan administration the hind paw volume was measured. A 5 ml blood sample was taken from each animal into sodium heparin Vacutainers and used for chemiluminescence measurement.

myeloperoxidase [7] = experiment: Binding of zwitterion to myeloperoxidase (preliminary studies)

Structure (SMILES): O=S(=O)(O)CCCN1CCN(CCO)CC1 [(H)EPPS, N-2-hydroxyethylpiperazine-N'3-propanesulphonic acid]
- activity at 10000 µM [1]: 50.9 ± 7.38%
- Myeloperoxidase activity of normal neutrophils (myeloperoxidase [2]): marked effect on MPO activity
- Myeloperoxidase activity of normal neutrophils (myeloperoxidase [2]; 10000 µM): 348 ± 15.1 percentage activity of control

Structure (SMILES): NC(=O)CNCCS(=O)(=O)O [ACES, N-(2-acetamido)-2-aminoethanesulphonic acid]
- activity at 10000 µM [1]: 12.9 ± 2.75%
- Myeloperoxidase activity of normal neutrophils (myeloperoxidase [2]): marked effect on MPO activity
- Myeloperoxidase activity of normal neutrophils (myeloperoxidase [2]; listed as ACE, 10000 µM): 166 ± 18.2 percentage activity of control

Structure (SMILES): NC(=O)CN(CC(=O)O)CC(=O)O [ADA, N-(2-acetamido)iminodiacetic acid]
- activity at 10000 µM [1]: 1.45 ± 0.27%
- Myeloperoxidase activity of normal neutrophils (myeloperoxidase [2]): 214 ± 32.3 percentage activity of control

Structure (SMILES): O=S(=O)(O)CCN(CCO)CCO [BES, N,N-bis(2-hydroxyethyl)-2-aminoethanesulphonic acid]
- activity at 10000 µM [1]: 4.95 ± 0.93%
- Myeloperoxidase activity of normal neutrophils (myeloperoxidase [2]): lesser effect on MPO stimulation
- Myeloperoxidase activity of normal neutrophils (myeloperoxidase [2]; 10000 µM): 138 ± 14.1 percentage activity of control

Structure (SMILES): O=S(=O)(O)CCCNC1CCCCC1 [CAPS, 3-(cyclohexylamino)propanesulphonic acid]
- activity at 10000 µM [1]: 87.9 ± 8.87%
- Myeloperoxidase activity of normal neutrophils (myeloperoxidase [2]): little effect
- Myeloperoxidase activity of normal neutrophils (myeloperoxidase [2]; 10000 µM): 115 ± 3.6 percentage activity of control

Structure (SMILES): O=S(=O)(O)CCNC1CCCCC1 [CHES, 2-(cyclohexylamino)ethanesulphonic acid]
- activity at 10000 µM [1]: 68.4 ± 6.36%
- Myeloperoxidase activity of normal neutrophils (myeloperoxidase [2]): little effect
- Myeloperoxidase activity of normal neutrophils (myeloperoxidase [2]; 10000 µM): 120 ± 4.8 percentage activity of control

Structure (SMILES): O=S(=O)(O)CCN1CCOCC1 [MES, 2(N-morpholino)ethanesulphonic acid]
- activity at 10000 µM [1]: 3.15 ± 0.67%
- Myeloperoxidase activity of normal neutrophils (myeloperoxidase [2]): marked effect on MPO activity
- Myeloperoxidase activity of normal neutrophils (myeloperoxidase [2]; 10000 µM): 264 ± 15.9 percentage activity of control

Structure (SMILES): O=S(=O)(O)CCCN1CCOCC1 [MOPS, 3-(N-morpholino)propanesulphonic]
- activity at 10000 µM [1]: 7.27 ± 1.53%
- Myeloperoxidase activity of normal neutrophils (myeloperoxidase [2]): lesser effect on MPO stimulation
- Myeloperoxidase activity of normal neutrophils (myeloperoxidase [2]; 10000 µM): 134 ± 13.4 percentage activity of control

Structure (SMILES): O=S(=O)(O)CCN1CCN(CCS(=O)(=O)O)CC1 [PIPES, piperazine-N,N'bis(2-ethanesulphonic acid]
- activity at 10000 µM [1]: 4.08 ± 0.97%
- Myeloperoxidase activity of normal neutrophils (myeloperoxidase [2]): marked effect on MPO activity
- Myeloperoxidase activity of normal neutrophils (myeloperoxidase [2]; 10000 µM): 199 ± 23.1 percentage activity of control

Structure (SMILES): O=S(=O)(O)CCNC(CO)(CO)CO [TES, N-N[tris(hydroxymethyl)-methyl]-2-aminoethanesulphonic acid]
- activity at 10000 µM [1]: 15.6 ± 2.41%
- Myeloperoxidase activity of normal neutrophils (myeloperoxidase [2]): lesser effect on MPO stimulation
- Myeloperoxidase activity of normal neutrophils (myeloperoxidase [2]; 10000 µM): 129 ± 20.1 percentage activity of control

Structure (SMILES): OCl [hypochlorous acid, reference compound]
- degradation of standard leukotriene B4 (leukotriene B4): cause degradation of standard leukotriene B4

Structure (SMILES): O=S(=O)(O)CCNCl [taurine chloramine]
- degradation of standard leukotriene B4 (leukotriene B4): cause degradation of standard leukotriene B4

Structure (SMILES): NCCS(=O)(=O)O [taurine, 2-aminoethanesulphonic acid]
- activity at 40000 µM ([1]; Normal): 12.7 ± 1.77%
- activity at 40000 µM ([1]; Psoriasis): 15.5 ± 2.1%
- activity at 40000 µM ([1]; disease controls (a)): 20.3 ± 1.85%
- activity at 40000 µM ([1]; disease controls (b)): 30.5 ± 8.6%
- degranulation by preincubated neutrophils compared to control cells (neutrophils [3]): no significant difference in degranulation
- Myeloperoxidase activity of neutrophils (myeloperoxidase [2]; Normal): 564 ± 38.3 percentage activity of control
- Myeloperoxidase activity of neutrophils (myeloperoxidase [2]; Psoriasis): 591 ± 61.8 percentage activity of control
- Myeloperoxidase activity of neutrophils (myeloperoxidase [2]; disease controls (a)): 473 ± 33.7 percentage activity of control
- Myeloperoxidase activity of neutrophils (myeloperoxidase [2]; disease controls (b)): 485 ± 49.2 percentage activity of control
- effect on catalase activity (catalase): no effect on catalase activity
- activity at 40000 µM (neutrophils [4]; Normal): 152 ± 14.1%
- activity at 40000 µM (neutrophils [4]; Psoriasis): 167 ± 34.7%
- activity at 40000 µM (neutrophils [4]; disease controls (a)): 142 ± 32.1%
- activity at 40000 µM (neutrophils [5]; Normal): 64.8 ± 8.3%
- activity at 40000 µM (neutrophils [5]; Psoriasis): 66.5 ± 10.9%
- activity at 40000 µM (neutrophils [5]; disease controls (a)): 73.3 ± 9.95%
- activity at 40000 µM (neutrophils [5]; disease controls (b)): 78 ± 8.6%
- reduction of leukotriene B4 in monocytes (monocytes): also demonstrated in monocytes
- percentage increase in paw volume ([6]; I.C.V. 50 μg taurine): 30 ± 4 percentage increase in paw volume
- percentage increase in paw volume ([6]; I.C.V. 500 μg taurine): 21 ± 8 percentage increase in paw volume
- percentage increase in paw volume ([6]; S.C. 500 μg taurine): 27 ± 2 percentage increase in paw volume
- reduction in paw oedema ([6]; i.c.v. 50 μg taurine): 21%
- reduction in paw oedema ([6]; i.c.v. 500 μg taurine): 54%
- reduction in paw oedema ([6]; s.c. 500 μg taurine): 18%
- binding to the enzyme (MPO) (myeloperoxidase [7]): did not bind to the enzyme
